Measured values as given in patent publication EP4559923A1, “ANTIHISTAMINE COMPOUND, AND PREPARATION METHOD THEREFOR AND USE THEREOF” (HC Synthetic Pharmaceutical Co., Ltd., priority 2022, dated 2024).

Key:
[1] = tested on: histamine-induced asthma; assay: Antiasthmatic effect on histamine-induced asthma in guinea pigs (latency period); assay type: in vivo; conditions: X±s, n = 5; for Post-administration latency period: 1 mg/kg oral gavage, sixty minutes after administration, histamine hydrochloride spray, no asthma within 8 minutes counted as 8 minutes; for Pre-administration latency period: baseline before dosing, histamine hydrochloride spray 0.8 mg/mL for 40 seconds
Protocol: The guinea pigs were placed in a polymethyl methacrylate bell jar and a histamine hydrochloride solution was sprayed ultrasonically (0.8 mg/mL) for 40 seconds. The time point at which the guinea pigs developed asthma was recorded. The time of convulsion and fall was taken as the latency period. Guinea pigs with a latency period exceeding 180 seconds were not selected. […] The guinea pigs were administered by oral gavage at a dose of 2 mL/kg·bw. Sixty minutes after the administration, the guinea pigs were placed in bell jars, and histamine hydrochloride solution was sprayed under the same conditions as in the previous selection. The latency period for the onset of asthma was recorded. […] The results were processed statistically.

[2] = tested on: isolated ileal smooth muscle; assay: Muscle tone of isolated ileal smooth muscle of guinea pigs, compound alone; conditions: Table 3, no histamine, X±s, n = 8; for Smooth muscle tone (g) After administration: 5 minutes after adding the drug; for Smooth muscle tone (g) Before administration: before adding the drug; for Antispasmodic percentage (%): relative to tone before adding compound, 5 min
Protocol: (§1) The guinea pig was knocked unconscious with a wooden stick, and the abdomen was immediately dissected to separate the ileum about 15 cm in length. The contents of the intestinal segment were flushed with Tyrode's solution and placed in Tyrode's solution at a constant temperature of 37°C for later use, and oxygen was supplied simultaneously. The experimental intestinal tract (1 cm in length) was cut and placed into 20 ml of Tyrode's solution at a constant temperature of 37°C with a continuous oxygen supply. One end of the intestine was fixed on the ventilation hook and the other end was connected to the muscle tone transducer and led to the computer interface. The muscle tone value of the ileal smooth muscle was recorded with a BL system. The experiment was carried out after the intestinal segment contraction became stable.
After the ileum contraction curve stabilized, the tone values before adding the drug were recorded, then the drug or DMSO was added, and the average tone value of the ileum contraction curve at that point was recorded 5 minutes later. The operation was repeated 8 times. The antispasmodic percentage was calculated according to the following formula. Antispasmodic percentage =; (Tone value before adding subject compound−Tone value after adding subject compound)/(Tone value before adding subject compound) × 100% [formula]

[3] = Muscle tone of isolated ileal smooth muscle of guinea pigs contracted with histamine; conditions: Table 4; 3 minutes after adding 0.05 mL compound at maximum histamine contraction; x±s, n = 8
Protocol: as §1
(§2) After the ileal peristalsis curve stabilized, the tone values before adding the compound were recorded, and then 0.05 mL of histamine was added. […] The operation was repeated 8 times. The antispasmodic percentage was calculated using the following equation. Antispasmodic percentage; = (Tone value after adding histamine−Tone value after adding subject compound)/(Tone value after adding histamine) × 100% [formula]

[4] = tested on: histamine; assay: as above; conditions: Table 4, x±s, n = 8; for Smooth muscle tone (g) After addition of histamine: after 0.05 mL of histamine, before compound; for Smooth muscle tone (g) Before administration: before histamine and compound; for Antispasmodic percentage (%): relative to tone after adding histamine, 3 min
Protocol: as §1, §2

SMILES: O=P(O)(O)OCCN1CCC(=C2c3ccc(F)cc3CCc3cccnc32)CC1 [Compound III-5]
- Post-administration latency period [1]: 371.19 ± 44.59 s
- Pre-administration latency period [1]: 100.10 ± 43.29 s
- Smooth muscle tone (g) After administration [2]: 1.18 ± 0.22 g
- Smooth muscle tone (g) Before administration [2]: 1.73 ± 0.21 g
- Antispasmodic percentage (%) [2]: 31.79±16.94%
- Smooth muscle tone (g) After administration [3]: 1.17 ± 0.23 g
- Smooth muscle tone (g) After addition of histamine [4]: 3.40 ± 0.83 g
- Smooth muscle tone (g) Before administration [4]: 1.79 ± 0.20 g
- Antispasmodic percentage (%) [4]: 65.58±20.01%

SMILES: O=P(O)(O)OCCCCN1CCC(=C2c3ccc(F)cc3CCc3cccnc32)CC1 [Compound III-11]
- Post-administration latency period [1]: 373.33 ± 50.81 s
- Smooth muscle tone (g) After administration [2]: 1.17 ± 0.22 g
- Smooth muscle tone (g) After administration [3]: 1.16 ± 0.20 g
- Antispasmodic percentage (%) [4]: 66.37±17.33%

SMILES: O=P(O)(O)OCOCCCCN1CCC(=C2c3ccc(Cl)cc3CCc3cccnc32)CC1 [Compound IV-10]
- Post-administration latency period [1]: 365.28 ± 52.09 s
- Smooth muscle tone (g) After administration [2]: 1.19 ± 0.24 g
- Antispasmodic percentage (%) [2]: 30.41±20.04%
- Smooth muscle tone (g) After administration [3]: 1.20 ± 0.27 g
- Antispasmodic percentage (%) [4]: 65.31±19.57%

SMILES: O=P(O)(O)OCOCCCCCN1CCC(=C2c3ccc(Cl)cc3CCc3cccnc32)CC1 [Compound IV-11]
- Post-administration latency period [1]: 364.85 ± 51.11 s
- Smooth muscle tone (g) After administration [2]: 1.18 ± 0.31 g
- Antispasmodic percentage (%) [2]: 32.57±19.31%
- Smooth muscle tone (g) After administration [3]: 1.18 ± 0.28 g
- Antispasmodic percentage (%) [4]: 65.89±19.39%

SMILES: O=P(O)(O)OCOCCCN1CCC(=C2c3ccc(Cl)cc3CCc3cccnc32)CC1 [Compound III-17]
- Post-administration latency period [1]: 360.28 ± 51.00 s
- Pre-administration latency period [1]: 96.93 ± 53.19 s
- Smooth muscle tone (g) After administration [2]: 1.14 ± 0.28 g
- Smooth muscle tone (g) Before administration [2]: 1.71 ± 0.23 g
- Antispasmodic percentage (%) [2]: 33.33±19.10%
- Smooth muscle tone (g) After administration [3]: 1.19 ± 0.29 g
- Smooth muscle tone (g) After addition of histamine [4]: 3.41 ± 0.84 g
- Smooth muscle tone (g) Before administration [4]: 1.83 ± 0.25 g
- Antispasmodic percentage (%) [4]: 65.10±19.10%

SMILES: O=P(O)(O)OCCCN1CCC(=C2c3ccc(Br)cc3CCc3cccnc32)CC1 [Compound III-9]
- Post-administration latency period [1]: 362.84 ± 53.77 s
- Smooth muscle tone (g) After administration [2]: 1.18 ± 0.25 g
- Antispasmodic percentage (%) [2]: 30.59±20.02%
- Smooth muscle tone (g) After administration [3]: 1.14 ± 0.26 g
- Antispasmodic percentage (%) [4]: 67.33±19.34%

SMILES: O=P(O)(O)OCN1CCC(=C2c3ccc(Cl)cc3CCc3cccnc32)CC1 [Compound IV-1]
- Post-administration latency period [1]: 362.39 ± 48.40 s
- Smooth muscle tone (g) After administration [2]: 1.18 ± 0.21 g
- Antispasmodic percentage (%) [2]: 30.99±19.20%
- Smooth muscle tone (g) After administration [3]: 1.20 ± 0.23 g
- Antispasmodic percentage (%) [4]: 65.12±19.01%

SMILES: O=P(O)(O)OCN1CCC(=C2c3ccc(F)cc3CCc3cccnc32)CC1 [Compound III-2]
- Post-administration latency period [1]: 367.77 ± 50.21 s
- Pre-administration latency period [1]: 98.81 ± 50.32 s
- Smooth muscle tone (g) After administration [2]: 1.15 ± 0.20 g
- Smooth muscle tone (g) Before administration [2]: 1.72 ± 0.23 g
- Antispasmodic percentage (%) [2]: 33.14±15.19%
- Smooth muscle tone (g) After administration [3]: 1.10 ± 0.19 g
- Smooth muscle tone (g) After addition of histamine [4]: 3.40 ± 0.99 g
- Smooth muscle tone (g) Before administration [4]: 1.75 ± 0.16 g
- Antispasmodic percentage (%) [4]: 67.65±17.99%

SMILES: O=P(O)(O)OCOCCN1CCC(=C2c3ccc(Cl)cc3CCc3cccnc32)CC1 [Compound III-16]
- Post-administration latency period [1]: 363.23 ± 50.55 s
- Pre-administration latency period [1]: 95.92 ± 50.22 s
- Smooth muscle tone (g) After administration [2]: 1.15 ± 0.24 g
- Smooth muscle tone (g) Before administration [2]: 1.72 ± 0.20 g
- Antispasmodic percentage (%) [2]: 33.14±18.54%
- Smooth muscle tone (g) After administration [3]: 1.18 ± 0.25 g
- Smooth muscle tone (g) After addition of histamine [4]: 3.42 ± 0.92 g
- Smooth muscle tone (g) Before administration [4]: 1.83 ± 0.21 g
- Antispasmodic percentage (%) [4]: 65.49±19.23%

SMILES: O=P(O)(O)OCOCCCCCN1CCC(=C2c3ccc(Cl)cc3CCc3cccnc32)CC1 [Compound III-19]
- Post-administration latency period [1]: 355.71 ± 50.33 s
- Pre-administration latency period [1]: 98.46 ± 52.04 s
- Smooth muscle tone (g) After administration [2]: 1.15 ± 0.24 g
- Smooth muscle tone (g) Before administration [2]: 1.72 ± 0.25 g
- Antispasmodic percentage (%) [2]: 33.13±19.91%
- Smooth muscle tone (g) After administration [3]: 1.18 ± 0.28 g
- Smooth muscle tone (g) After addition of histamine [4]: 3.43 ± 0.94 g
- Smooth muscle tone (g) Before administration [4]: 1.82 ± 0.21 g
- Antispasmodic percentage (%) [4]: 65.59±18.97%

SMILES: O=P(O)(O)OCN1CCC(=C2c3ccc(Br)cc3CCc3cccnc32)CC1 [Compound III-3]
- Antispasmodic percentage (%) [2]: 29.82±18.20%
- Smooth muscle tone (g) After addition of histamine [4]: 3.50 ± 1.19 g
- Antispasmodic percentage (%) [4]: 66.28±16.30%

SMILES: O=P(O)(O)OCCCCN1CCC(=C2c3ccc(Br)cc3CCc3cccnc32)CC1 [Compound III-12]
- Post-administration latency period [1]: 359.80 ± 51.47 s
- Pre-administration latency period [1]: 99.91 ± 49.45 s
- Smooth muscle tone (g) After administration [2]: 1.25 ± 0.21 g
- Smooth muscle tone (g) Before administration [2]: 1.74 ± 0.23 g
- Antispasmodic percentage (%) [2]: 28.16±21.10%
- Smooth muscle tone (g) After administration [3]: 1.21 ± 0.23 g
- Smooth muscle tone (g) After addition of histamine [4]: 3.45 ± 0.94 g
- Smooth muscle tone (g) Before administration [4]: 1.82 ± 0.21 g
- Antispasmodic percentage (%) [4]: 64.92±17.49%

SMILES: O=P(O)(O)OCCN1CCC(=C2c3ccc(Br)cc3CCc3cccnc32)CC1 [Compound III-6]
- Post-administration latency period [1]: 373.29 ± 50.22 s
- Pre-administration latency period [1]: 95.26 ± 48.88 s
- Smooth muscle tone (g) After administration [2]: 1.16 ± 0.27 g
- Smooth muscle tone (g) Before administration [2]: 1.72 ± 0.20 g
- Antispasmodic percentage (%) [2]: 32.56±17.27%
- Smooth muscle tone (g) After administration [3]: 1.20 ± 0.20 g
- Smooth muscle tone (g) After addition of histamine [4]: 3.47 ± 0.90 g
- Smooth muscle tone (g) Before administration [4]: 1.83 ± 0.18 g
- Antispasmodic percentage (%) [4]: 65.42±17.83%

SMILES: O=P(O)(O)OCCCN1CCC(=C2c3ccc(F)cc3CCc3cccnc32)CC1 [Compound III-8]
- Smooth muscle tone (g) After administration [2]: 1.14 ± 0.23 g
- Antispasmodic percentage (%) [2]: 33.72±19.01%
- Smooth muscle tone (g) After administration [3]: 1.16 ± 0.25 g
- Antispasmodic percentage (%) [4]: 66.47±18.83%

SMILES: O=P(O)(O)OCN1CCC(=C2c3ccc(Cl)cc3CCc3cccnc32)CC1 [Compound III-1]
- Post-administration latency period [1]: 388.39 ± 53.23 s
- Pre-administration latency period [1]: 99.34 ± 49.57 s
- Smooth muscle tone (g) After administration [2]: 1.10 ± 0.22 g
- Smooth muscle tone (g) Before administration [2]: 1.74 ± 0.19 g
- Antispasmodic percentage (%) [2]: 36.78±18.11%
- Smooth muscle tone (g) After administration [3]: 1.12 ± 0.25 g
- Smooth muscle tone (g) After addition of histamine [4]: 3.44 ± 1.10 g
- Smooth muscle tone (g) Before administration [4]: 1.81 ± 0.19 g
- Antispasmodic percentage (%) [4]: 67.44±15.23%

SMILES: O=P(O)(O)OCCCCCN1CCC(=C2c3ccc(Br)cc3CCc3cccnc32)CC1 [Compound III-15]
- Post-administration latency period [1]: 359.61 ± 50.22 s
- Pre-administration latency period [1]: 99.11 ± 51.09 s
- Smooth muscle tone (g) After administration [2]: 1.13 ± 0.20 g
- Smooth muscle tone (g) Before administration [2]: 1.74 ± 0.22 g
- Antispasmodic percentage (%) [2]: 35.05±18.37%
- Smooth muscle tone (g) After administration [3]: 1.17 ± 0.23 g
- Smooth muscle tone (g) After addition of histamine [4]: 3.40 ± 0.89 g
- Smooth muscle tone (g) Before administration [4]: 1.80 ± 0.20 g
- Antispasmodic percentage (%) [4]: 65.59±18.88%

SMILES: O=P(O)(O)OCCN1CCC(=C2c3ccc(Cl)cc3CCc3cccnc32)CC1 [Compound III-4]
- Post-administration latency period [1]: 366.40 ± 50.23 s
- Pre-administration latency period [1]: 97.99 ± 50.18 s
- Smooth muscle tone (g) After administration [2]: 1.17 ± 0.21 g
- Smooth muscle tone (g) Before administration [2]: 1.70 ± 0.20 g
- Antispasmodic percentage (%) [2]: 31.17±20.11%
- Smooth muscle tone (g) After administration [3]: 1.21 ± 0.20 g
- Smooth muscle tone (g) After addition of histamine [4]: 3.48 ± 0.98 g
- Smooth muscle tone (g) Before administration [4]: 1.75 ± 0.18 g
- Antispasmodic percentage (%) [4]: 65.23±19.91%
